Patent publication EP0908457B1, “3-(1,2-benzisothiazol- and isoxazol-5-Y1)-2,4(1H,3H)-pyrimidinedione or thione and 3-(1,2-benzisothiazol- and isoxazol-5-y1)-4(3H)-pyrimidinone or thione herbicidal agents” (BASF AKTIENGESELLSCHAFT, priority 1997, dated 1999)

What was measured:
[1] = test system: Monochoria vaginalis, Presl.; experiment: Preemergence weed control under flooded paddy conditions, MOOVA (Monochoria); format: in vivo; details: preemergence, flooded paddy, rated three to four weeks after treatment
[2] = test system: Cyperus serotinus, Rottb.; experiment: Preemergence weed control under flooded paddy conditions, CYPSE (Flatsedge); format: in vivo; details: preemergence, rated three to four weeks after treatment
Sagittaria pygmaea, L. = experiment: Preemergence weed control under flooded paddy conditions, SAGPY (Arrowhead (Pygmaea)); format: in vivo; details: preemergence, flooded paddy, rated three to four weeks after treatment
[3] = test system: Echinochloa oryzoides (Ard.) Fritsch.; experiment: Preemergence weed control under flooded paddy conditions, ECHORC (Watergrass (Calif.)); format: in vivo; details: preemergence, flooded paddy, rated three to four weeks after treatment
Cyperus iria = experiment: Preemergence weed control under flooded paddy conditions, CYPIR (Rice Flatsedge); format: in vivo; details: preemergence, flooded paddy, rated three to four weeks after treatment
[4] = test system: Oryza sativa, (L.) Tebonnet; experiment: Rice tolerance to post-transplant applications under flooded paddy conditions (Example 187), ORYSAT (Rice, Tebonnet); details: rated three to four weeks after treatment
Further: meaning of each grade not given here.

Structure (SMILES) | herbicidal effect rating, MOOVA ([1]; Rate 0.0620 kg/ha) | herbicidal effect rating, MOOVA ([1]; Rate 0.1250 kg/ha) | herbicidal effect rating, MOOVA ([1]; Rate 0.2500 kg/ha) | herbicidal effect rating, CYPSE ([2]; Rate 0.0320 kg/ha) | herbicidal effect rating, SAGPY (Sagittaria pygmaea, L.; Rate 0.0320 kg/ha) | herbicidal effect rating, SAGPY (Sagittaria pygmaea, L.; Rate 0.0620 kg/ha) | herbicidal effect rating, SAGPY (Sagittaria pygmaea, L.; Rate 0.1250 kg/ha) | herbicidal effect rating, SAGPY (Sagittaria pygmaea, L.; Rate 0.2500 kg/ha) | herbicidal effect rating, ECHORC ([3]; Rate 0.0320 kg/ha) | herbicidal effect rating, ECHORC ([3]; Rate 0.0620 kg/ha) | herbicidal effect rating, ECHORC ([3]; Rate 0.1250 kg/ha) | herbicidal effect rating, ECHORC ([3]; Rate 0.2500 kg/ha) | herbicidal effect rating, CYPIR (Cyperus iria; Rate 0.0320 kg/ha) | herbicidal effect rating, CYPIR (Cyperus iria; Rate 0.0620 kg/ha) | herbicidal effect rating, CYPIR (Cyperus iria; Rate 0.1250 kg/ha) | herbicidal effect rating, CYPIR (Cyperus iria; Rate 0.2500 kg/ha) | herbicidal effect rating ORYSAT ([4]; Rate 0.0320 kg/ha) | herbicidal effect rating ORYSAT ([4]; Rate 0.0620 kg/ha) | herbicidal effect rating ORYSAT ([4]; Rate 0.1250 kg/ha) | herbicidal effect rating ORYSAT ([4]; Rate 0.2500 kg/ha) | other results
Cn1c(C(F)(F)F)cc(=O)n(-c2ccc3snc(COCc4ccc([N+](=O)[O-])cc4)c3c2)c1=O [Example 589, 2,4(1H,3H)-Pyrimidinedione, 1-methyl-3-{3-{[(p-nitrobenzyl)oxy]methyl}-1,2-benzisothiazol-5-yl}-6-(trifluoromethyl)-] | 8.0 | 8.0 | 9.0 | 0.0 | 0.0 | 2.0 | 2.0 | 3.0 | 4.0 | 4.0 | 4.0 | 4.0 | 0.0 | 2.0 | 3.0 | 4.0 | 0.0 | 0.0 | 0.0 | 0.0 | herbicidal effect rating, MOOVA ([1]; Rate 0.0320 kg/ha): 7.0; herbicidal effect rating, CYPSE ([2]; Rate 0.0620 kg/ha): 0.0; herbicidal effect rating, CYPSE ([2]; Rate 0.1250 kg/ha): 0.0
CC(c1nsc2ccc(-n3c(=O)cc(C(F)(F)F)n(C)c3=O)cc12)S(C)(=O)=O (stereo not drawn) [Example 590, 2,4(1H,3H)-Pyrimidinedione, 1-methyl-3-{3-[1-(methylsulfonyl)ethyl}-1,2-benzisothiazol-5-yl}-6-(trifluoromethyl)-] | 7.0 | 7.0 | 9.0 | 0.0 | 3.0 | 4.0 | 8.0 | 9.0 | 3.0 | 5.0 | 6.0 | 9.0 | 2.0 | 7.0 | 7.0 | 9.0 | 3.0 | 5.0 | 5.0 | 6.0 | herbicidal effect rating, CYPSE ([2]; Rate 0.2500 kg/ha): 5.0
CC(C)C=C(C#N)c1nsc2ccc(-n3c(=O)cc(C(F)(F)F)n(C)c3=O)cc12 [Example 591, 1,2-Benzisothiazole-3-acetonitrile, 5-[3,6-dihydro-3-methyl-2,6-dioxo-4-(trifluoromethyl)-1(2H)-pyrimidinyl]-alpha-(2-methylpropylidene)-] | 9.0 | 9.0 | 9.0 | 0.0 | 0.0 | 3.0 | 7.0 | 7.0 | 3.0 | 3.0 | 7.0 | 9.0 | 3.0 | 4.0 | 7.0 | 7.0 | 2.0 | 4.0 | 4.0 | 5.0 | herbicidal effect rating, MOOVA ([1]; Rate 0.0320 kg/ha): 7.0; herbicidal effect rating, CYPSE ([2]; Rate 0.1250 kg/ha): 0.0
